From patent publication US20220289691A1, “5-AMINO-SUBSTITUTED PYRAZOLES AND TRIAZOLES AS PEST CONTROL AGENTS” (Bayer Aktiengesellschaft, priority 2019, published 2022)

Legend:
[1] = system: Spodoptera frugiperda; assay: Spodoptera frugiperda spray test; assay type: in vivo; conditions: foliar, 168 h, 100 g/ha, maize leaf discs, after 7 days, read-out: efficacy (caterpillars killed)
Description: Spodoptera frugiperda—Spray Test Solvent: 78.0 parts by weight of acetone • • 1.5 parts by weight of dimethylformamide Emulsifier: alkylaryl polyglycol ether
(§1) To produce a suitable active compound formulation, 1 part by weight of active compound is dissolved using the stated parts by weight of solvent and made up with water containing an emulsifier concentration of 1000 ppm until the desired concentration is attained. To produce further test concentrations, the formulation is diluted with emulsifier-containing water.
Leaf discs of maize (Zea mays) are sprayed with an active compound formulation of the desired concentration and, after drying, populated with caterpillars of the fall armyworm (Spodoptera frugiperda).
After 7 days, the efficacy in % is determined. 100% means that all the caterpillars have been killed; 0% means that no caterpillar has been killed.

[2] = system: Diabrotica balteata; assay: Diabrotica balteata spray test; assay type: in vivo; conditions: 168 h, beetle larvae on wheat, after 7 days, read-out: efficacy (wheat plant growth); for pest or weed control at 100 g/ha: 100 g/ha (=32 μg/cavity); for pest or weed control at 500 g/ha: 500 g/ha (=160 μg/cavity); for pest or weed control at 125 g/ha: 125 g/ha (=40 μg/cavity)
Description: Diabrotica balteata—Spray Test Solvent: 78 parts by weight of acetone • • 1.5 parts by weight of dimethylformamide Emulsifier: alkylaryl polyglycol ether
as §1
Pre-swollen wheat grains (Triticum aestivum) are incubated in a multiwell plate filled with agar and a little water for one day (5 seed grains per cavity). The germinated wheat grains are sprayed with an active compound formulation of the desired concentration. Subsequently, each cavity is infected with 10-20 beetle larvae of Diabrotica balteata.
After 7 days, the efficacy in % is determined. 100% means that all wheat plants have grown as in the untreated, uninfected control; 0% means that no wheat plant has grown.

SMILES	pest or weed control at 100 g/ha [1] [%]	pest or weed control at 100 g/ha [2] [%]	pest or weed control at 500 g/ha [2] [%]	pest or weed control at 125 g/ha [2] [%]
CCOCCNc1nc(-c2ccc(NC(=O)N=C3SCC(=O)N3c3ccccc3C(C)C)cc2)nn1-c1ccc(OC(F)(F)F)cc1 [Compound I-044]	100	80	80	–
COC(CCNc1nc(-c2ccc(C=NN=C3SCC(=O)N3c3ccccc3C(C)C)cc2)nn1-c1ccc(OC(F)(F)F)cc1)OC [Compound I-088]	100	100	–	–
CC(C)c1ccccc1N1C(=O)CSC1=NN=Cc1ccc(-c2nc(N)n(-c3ccc(OC(F)(F)C(F)(F)F)cc3)n2)cc1 [Compound I-065]	100	100	100	–
CC(C)c1ccccc1N1C(=O)CSC1=NN=Cc1ccc(-c2nc(NCCS(C)(=O)=O)n(-c3ccc(OC(F)(F)F)cc3)n2)cc1 [Compound I-095]	100	100	–	–
CC(C)c1ccccc1N1C(=O)CSC1=NC(=O)Nc1ccc(-c2nc(NC3CCC3)n(-c3ccc(OC(F)(F)F)cc3)n2)cc1 [Compound I-041]	100	100	100	–
CC(C)c1ccccc1N1C(=O)CSC1=NN=Cc1ccc(-c2nc(NC3CCOCC3)n(-c3ccc(OC(F)(F)F)cc3)n2)cc1 [Compound I-087]	100	100	–	–
CNc1nc(-c2ccc(C=NN3CCCSC3=Nc3ccccc3C(C)C)cc2)nn1-c1ccc(OC(F)(F)F)cc1 [Compound I-102]	100	100	–	–
CC(C)c1ccccc1NC(=S)NN=Cc1ccc(-c2nc(N)n(-c3ccc(OC(F)(F)C(F)(F)F)cc3)n2)cc1 [Compound I-066]	100	100	100	–
COCCNc1nc(-c2ccc(NC(=O)N=C3SCC(=O)N3c3ccccc3C(C)C)cc2)nn1-c1ccc(OC(F)(F)F)cc1 [Compound I-080]	100	100	–	–
CC(C)c1ccccc1NC(=S)NN=Cc1ccc(-c2nc(NC3CCOC3)n(-c3ccc(OC(F)(F)F)cc3)n2)cc1 (stereo not shown) [Compound I-068]	100	100	100	–
CCOC(=O)C(=O)Nc1nc(-c2ccc(NC(=O)N=C3SCC(=O)N3c3ccccc3C(C)C)cc2)nn1-c1ccc(OC(F)(F)F)cc1 [Compound I-037]	83	80	100	–
CNc1nc(-c2ccc(/C=N/NC(=S)Nc3ccccc3C(C)C)c(Cl)c2)nn1-c1ccc(OC(F)(F)F)cc1 [Compound I-114]	100	100	–	–
CNc1nc(-c2ccc(C=NN=C3SCC(=O)CN3c3ccccc3C(C)C)cc2)nn1-c1ccc(OC(F)(F)F)cc1 [Compound I-103]	100	100	–	–
C=CCNc1nc(-c2ccc(C=NNC(=S)Nc3ccccc3C(C)C)cc2)nn1-c1ccc(OC(F)(F)F)cc1 [Compound I-071]	100	100	–	–
CC(C)Nc1nc(-c2ccc(NC(=O)N=C3SCC(=O)N3c3ccccc3C(C)C)cc2)nn1-c1ccc(OC(F)(F)F)cc1 [Compound I-043]	100	100	100	–
CNc1nc(-c2ccc(C=NNC(=S)Nc3ccccc3C(C)C)cc2C#N)nn1-c1ccc(OC(F)(F)F)cc1 [Compound I-123]	100	100	–	–
CNc1nc(-c2ccc(C=NN=C3SCCN3c3ccccc3C(C)C)cc2)nn1-c1ccc(OC(F)(F)F)cc1 [Compound I-091]	83	100	–	–
CNc1cc(-c2ccc(C=NN=C3SCC(=O)N3c3ccccc3C(C)C)cc2)nn1-c1ccc(OC(F)(F)F)cc1 [Compound I-106]	100	100	–	–
CC(C)c1ccccc1NC(=S)NN=Cc1ccc(-c2nc(NC3COC3)n(-c3ccc(OC(F)(F)F)cc3)n2)cc1 [Compound I-049]	100	100	100	–
CC(=O)Nc1nc(-c2ccc(NC(=O)N=C3SCC(=O)N3c3ccccc3C(C)C)cc2)nn1-c1ccc(OC(F)(F)C(F)(F)F)cc1 [Compound I-054]	100	–	100	–

SMILES	pest or weed control at 100 g/ha [1] [%]	pest or weed control at 100 g/ha [2] [%]	pest or weed control at 500 g/ha [2] [%]	pest or weed control at 125 g/ha [2] [%]
CNc1nc(-c2ccc(C=NN=C3SCC(=O)N3c3ccccc3C(C)C)cc2Cl)nn1-c1ccc(OC(F)(F)F)cc1 [Compound I-112]	100	100	–	–
CC(C)c1ccccc1NC(=S)NN=Cc1ccc(-c2nc(NC3CSC3)n(-c3ccc(OC(F)(F)C(F)(F)F)cc3)n2)cc1 [Compound I-100]	100	100	–	–
CC(C)c1ccccc1NC(=S)NN=Cc1ccc(-c2nc(NS(=O)(=O)C3CC3)n(-c3ccc(OC(F)(F)F)cc3)n2)cc1 [Compound I-023]	100	–	100	100
CC(=O)Nc1nc(-c2ccc(C=NN=C3SCC(=O)N3c3ccccc3C(C)C)cc2)nn1-c1ccc(OC(F)(F)C(F)(F)F)cc1 [Compound I-099]	100	80	–	–
CC(C)c1ccccc1N1C(=O)CSC1=NC(=O)Nc1ccc(-c2nc(N)n(-c3ccc(OC(F)(F)F)cc3)n2)cc1 [Compound I-025]	100	–	100	100
CNc1nc(-c2ccc(C=NN=C3SCC(=O)N3c3ccccc3C(C)C)cc2)nn1-c1ccc(OC(F)(F)F)cc1 [Compound I-024]	100	–	100	100
CC(=O)NCCNc1nc(-c2ccc(NC(=O)N=C3SCC(=O)N3c3ccccc3C(C)C)cc2)nn1-c1ccc(OC(F)(F)F)cc1 [Compound I-033]	100	–	100	100
CNc1nc(-c2ccc(C=NN=C3SCC(=O)N3c3ccccc3C(C)C)nc2)nn1-c1ccc(OC(F)(F)F)cc1 [Compound I-118]	100	100	–	–
CNC(=O)Nc1nc(-c2ccc(NC(=O)N=C3SCC(=O)N3c3ccccc3C(C)C)cc2)nn1-c1ccc(OC(F)(F)F)cc1 [Compound I-030]	100	–	100	–
CNc1nc(-c2ccc(C=NN=C3SCC(=O)N3c3ccccc3C(C)C)cc2F)nn1-c1ccc(OC(F)(F)F)cc1 [Compound I-110]	100	100	–	–
CC(C)c1ccccc1N1C(=O)CSC1=NC(=O)Nc1ccc(-c2nc(N)n(-c3ccc(OC(F)(F)C(F)(F)F)cc3)n2)cc1 [Compound I-055]	100	80	100	–
CC(C)c1ccccc1N1C(=O)CSC1=NC(=O)Nc1ccc(-c2nc(NC3CC3)n(-c3ccc(OC(F)(F)F)cc3)n2)cc1 [Compound I-029]	100	–	100	100
COC(CCNc1nc(-c2ccc(C=NNC(=S)Nc3ccccc3C(C)C)cc2)nn1-c1ccc(OC(F)(F)F)cc1)OC [Compound I-082]	100	100	–	–
COCCNc1nc(-c2ccc(C=NNC(=S)Nc3ccccc3C(C)C)cc2)nn1-c1ccc(OC(F)(F)F)cc1 [Compound I-072]	100	100	–	–
CC(C)c1ccccc1N1C(=O)CSC1=NN=Cc1ccc(-c2nc(NC3CC3)n(-c3ccc(OC(F)(F)F)cc3)n2)cc1 [Compound I-058]	100	100	100	–
CNc1nc(-c2c(F)cc(C=NN=C3SCC(=O)N3c3ccccc3C(C)C)cc2F)nn1-c1ccc(OC(F)(F)F)cc1 [Compound I-122]	100	100	–	–
COCCCNc1nc(-c2ccc(C=NNC(=S)Nc3ccccc3C(C)C)cc2)nn1-c1ccc(OC(F)(F)F)cc1 [Compound I-073]	100	100	–	–
CNc1nc(-c2ccc(C=NNC(=S)Nc3ccccc3C(C)C)cc2)nn1-c1ccc(OC(F)(F)C(F)(F)F)cc1 [Compound I-067]	100	100	100	–
CNc1nc(-c2ccc(C=NNC(=S)Nc3cc(OC)ccc3C(C)C)cc2)nn1-c1ccc(OC(F)(F)F)cc1 [Compound I-084]	100	100	–	–
